Laboratory results reported in paper PMC12926254, “Novel pyrazole carboxylate derivatives as lonazolac bioisosteres with selective COX-2 inhibition: design, synthesis and anti-inflammatory activity” (Molecular Diversity, 2025).
Marks after values point to notes of the source that are not given here.

Columns and labels:
[1] = target: T1, COX-1 (Ovis aries, UniProt P05979); experiment: In vitro COX-1 inhibition (COX-1 Inhibitor Screening Kit-K548, Biovision); type: biochemical; settings: mean of six values ± standard deviation
T1 construct: purchased Biovision K548
T1 sequence (P05979 25-600): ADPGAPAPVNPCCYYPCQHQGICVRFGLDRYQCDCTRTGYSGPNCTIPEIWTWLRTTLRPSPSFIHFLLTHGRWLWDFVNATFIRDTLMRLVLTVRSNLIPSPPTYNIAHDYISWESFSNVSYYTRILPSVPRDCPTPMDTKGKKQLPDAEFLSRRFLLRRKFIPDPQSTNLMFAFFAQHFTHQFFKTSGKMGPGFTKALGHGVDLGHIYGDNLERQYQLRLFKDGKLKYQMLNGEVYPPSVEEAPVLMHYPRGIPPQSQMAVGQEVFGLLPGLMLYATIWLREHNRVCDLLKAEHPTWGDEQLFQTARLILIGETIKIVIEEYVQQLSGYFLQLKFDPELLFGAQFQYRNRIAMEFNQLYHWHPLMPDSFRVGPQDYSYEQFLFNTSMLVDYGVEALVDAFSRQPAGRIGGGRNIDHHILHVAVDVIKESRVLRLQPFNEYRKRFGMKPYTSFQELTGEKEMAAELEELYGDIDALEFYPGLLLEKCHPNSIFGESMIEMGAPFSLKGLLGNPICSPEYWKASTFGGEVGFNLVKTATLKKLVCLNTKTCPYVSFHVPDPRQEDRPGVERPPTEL
Description: The IC50 value of the tested compounds was determined.
COX-1 inhibitor Screening Protocol: Dissolve the tested compounds in DMSO. Use COX assay buffer to dilute the relevant test concentration by 10X before using. Place 10 µl of diluted test inhibitor or assay buffer in the specified wells instead of the sample screen (S) or enzyme control (EC; no inhibitor). To one of the wells, add 2 µl of SC560 and 8 µl of COX Assay Buffer as an inhibitor control (IC). Before using, combine 2 µl of COX Cofactor with 398 µl of COX Assay Buffer to dilute COX cofactor 200 times. Blend thoroughly. Just before using, mix 5 µl of the provided arachidonic acid with 5 µl of NaOH to make the arachidonic acid solution. Combine quickly using a vortex. To dilute the arachidonic acid/NaOH solution 10 times, add 90 µl of water. There should be 80 µl of reaction mix in each well. Using a multi-channel pipette, add 10 µl of diluted arachidonic acid/NaOH solution to each well to initiate all the reactions at once.

[2] = tested on: iNOS; experiment: Inducible nitric oxide synthase (iNOS) inhibition in LPS-induced RAW 264.7 cells (ELISA); type: cell-based; settings: Mus musculus, RAW264.7
Description: NO is produced from L-arginine by iNOS and is utilized in a variety of cell signaling processes. An inducible member of the NOS family, iNOS is increased during pro-inflammatory cytokine activity as a host-defense mechanism. A commercially available quantitative ELISA kit (ab253219 Mouse iNOS Simple Step ELISA® Kit) will be used to evaluate the iNOS enzyme activity of the substances in the cell lysate in accordance with the manufacturer’s instructions.

[3] = tested on: carrageenan-induced rat paw edema; experiment: Carrageenan-induced rat paw edema assay; type: in vivo; settings: for % inhibition (edema) / Paw edema % inhibition / Paw edema thickness ± SEM: 50 mg/kg; for Paw edema % inhibition / Paw edema thickness ± SEM: rat; for ED50: Rattus norvegicus, dose producing 50% edema inhibition
Description: As previously described, paw thickness was evaluated at 1, 3, and 5 h following carrageenan injection at a dose of 50 mg/kg.

[4] = tested on: gastric mucosa; experiment: Ulcerogenic liability (ulcer index); type: in vivo; settings: 50 mg/kg orally, three successive days, rats
Description: […]. […] Rats were divided into 7 groups and fasted for 18 h before drug administration. The control group received the vehicle (2.5% Tween 80). […] After 2 h, animals were fed. Rats were given the required dose orally for three successive days. After 2 h of the last dose, rats were sacrificed; the stomach of each rat was removed then opened along the greater curvature and rinsed with saline. In order to examine the stomach, it was stretched by pins on a corkboard. The gastric mucosa was carefully inspected for the occurrence of ulcers with the aid of an illuminated magnifying lens (l0x), then ulcer index was calculated according to the method described by Cho and Ogle. Lesions were counted and measured along the greater diameter using transparent ruler. Every five hemorrhagic spots were considered equivalent to 1 mm of ulcer. The ulcer index (mm) was calculated from the sum of the total length of ulcers and hemorrhagic spots in each stomach.

[5] = tested on: PGE2; experiment: PGE2 production in LPS-activated RAW 264.7 macrophages (ELISA); settings: Mus musculus, RAW264.7, read-out: PGE2 IC50
[6] = target: T2, 5-LOX (Homo sapiens, UniProt P09917); experiment: In vitro 5-LOX inhibition (5-Lipoxygenase Inhibitor Screening Kit K980-100, Biovision)
T2 sequence (P09917 1-674): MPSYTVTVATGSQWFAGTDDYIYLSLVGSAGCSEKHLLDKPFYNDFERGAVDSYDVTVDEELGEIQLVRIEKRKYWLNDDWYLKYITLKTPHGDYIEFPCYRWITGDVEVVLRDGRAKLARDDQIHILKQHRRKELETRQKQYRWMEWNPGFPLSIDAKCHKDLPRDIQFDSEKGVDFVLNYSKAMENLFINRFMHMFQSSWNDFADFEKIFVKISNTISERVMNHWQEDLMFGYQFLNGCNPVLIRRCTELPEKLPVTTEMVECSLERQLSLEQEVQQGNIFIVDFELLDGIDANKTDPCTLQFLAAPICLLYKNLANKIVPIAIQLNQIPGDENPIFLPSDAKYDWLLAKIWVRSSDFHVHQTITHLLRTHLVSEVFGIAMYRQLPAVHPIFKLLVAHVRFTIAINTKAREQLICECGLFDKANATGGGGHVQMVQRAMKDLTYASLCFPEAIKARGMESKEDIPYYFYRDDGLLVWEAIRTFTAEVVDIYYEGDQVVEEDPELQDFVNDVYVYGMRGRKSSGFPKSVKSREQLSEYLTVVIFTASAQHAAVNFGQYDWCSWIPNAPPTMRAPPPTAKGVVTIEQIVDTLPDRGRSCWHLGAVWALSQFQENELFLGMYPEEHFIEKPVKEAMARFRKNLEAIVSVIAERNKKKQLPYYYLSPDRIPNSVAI
Description: 5-LOX inhibitor Screening Protocol: dissolve the test compounds in DMSO. The solution was prepared at a concentration so that the final 100 µl reaction volume per well contains no more than 2 µl of the test chemical solution added to it. Each well was filled in the 96-well white plate with 2 µl of the test substance. […] To the “Enzyme Control” well, was filled with 40 µl of LOX Assay Buffer. In order to run the required number of assays, enough reagents were mixed. 40 µl of the following mix was prepared for each well: Buffer for Reaction MIx LOX Assay 34 µl LOX Probe 2 µl 5. LOX Enzyme 4 µl After thoroughly mixing, the Reaction Mix was transferred to the wells holding the Test Compounds, Enzyme Control, Inhibitor Control, and “Solvent Control.” substrate was added after 10 min of RT incubation of the plate. The wells shouldn’t contain any bubbles. […] To obtain the 5X solution, the 500 X solution with LOX Assay Buffer was diluted at a ratio of 1:100, depending on the number of reactions to be conducted. For each reaction, 20 µl of 5X solution will be required. How much substrate is needed based on the number of reactions. The final substrate functioning solution needs to be consumed that same day and stored on ice. The remaining stock solution should be immediately stored at -20 °C. 20 µl of 5X LOX Substrate should be added with a multichannel pipette to every well. […] To get the RFU for each sample, the RFU was subtracted at time t1 from the RFU at time t2, making sure that both t2 and t1 fall within the assay's linear range. The slope for each sample (including the “enzyme control”)was multiplied by the time Δt (t2 – t1) to find the ΔRFU. In the equations below, the values was substituted for “Solvent Control” for “Enzyme Control” if the two slopes disagree. %Inhibition=[slopeof(enzymecontrol)-slopeof(testcompound)]/slopeof(enzymecontrol)×100 %Relativeactivity=[slope(testcompound)]/slope(enzymecontrol)×100

SMILES: CCOC(=O)COc1ccc(C2=NN(c3ccc(S(C)(=O)=O)cc3)C(c3ccc(Br)cc3)C2)cc1 (stereo not drawn) [Compound 15 h, Ethyl 2-(4-(5-(4-bromophenyl)-1-(4-(methylsulfonyl)phenyl)-4,5-dihydro-1H-pyrazol-3-yl)phenoxy)acetate]
- IC50 [1]: 6880 ± 250 nM
- IC50 [2]: 610 ± 130 nM
- % inhibition (edema) [3]: 82.28%
- Paw edema % inhibition ([3]; 1 h after carrageenan): 54.85%
- Paw edema thickness ± SEM ([3]; 1 h after carrageenan): 2.57 ± 0.0071 mm
- Paw edema % inhibition ([3]; 3 h after carrageenan): 55.9%
- Paw edema thickness ± SEM ([3]; 3 h after carrageenan): 2.61 ± 0.018 mm
- Paw edema % inhibition ([3]; 5 h after carrageenan): 59.3%
- Paw edema thickness ± SEM ([3]; 5 h after carrageenan): 2.44 ± 0.0099 mm
- ED50 [3]: 29.9 mg/kg
- % incidence /10 [4]: 2
- Average no of ulcer [4]: 0.40 ± 0.006^b
- Average severity [4]: 0.29 ± 0.009***^b
- IC50 [5]: 280 ± 32 nM
- IC50 [6]: 813 ± 32 nM

SMILES: CCOC(=O)COc1ccc(C2=NN(c3ccc(S(C)(=O)=O)cc3)C(c3ccc(OC)cc3)C2)cc1 (stereo not drawn) [Compound 15c, Ethyl 2-(4-(5-(4-methoxyphenyl)-1-(4-(methylsulfonyl)phenyl)-4,5-dihydro-1H-pyrazol-3-yl)phenoxy)acetate]
- IC50 [1]: 11300 ± 450 nM
- IC50 [2]: 410 ± 60 nM
- % inhibition (edema) [3]: 70.02%
- Paw edema % inhibition ([3]; 1 h after carrageenan): 38.3%
- Paw edema thickness ± SEM ([3]; 1 h after carrageenan): 3.1 ± 0.002 mm
- Paw edema % inhibition ([3]; 3 h after carrageenan): 55%
- Paw edema thickness ± SEM ([3]; 3 h after carrageenan): 2.56 ± 0.0034 mm
- Paw edema % inhibition ([3]; 5 h after carrageenan): 66.1%
- Paw edema thickness ± SEM ([3]; 5 h after carrageenan): 2.1 ± 0.0084 mm
- ED50 [3]: 24.1 mg/kg
- % incidence /10 [4]: 2
- Average no of ulcer [4]: 0.55 ± 0.012***^b
- Average severity [4]: 0.17 ± 0.004***^b
- IC50 [5]: 520 ± 29 nM
- IC50 [6]: 453 ± 18 nM

SMILES: CCOC(=O)COc1ccc(C2=NN(c3ccc(S(C)(=O)=O)cc3)C(c3cc(OC)c(OC)c(OC)c3)C2)cc1 (stereo not drawn) [Compound 15d, Ethyl 2-(4-(1-(4-(methylsulfonyl)phenyl)-5-(3,4,5-trimethoxyphenyl)-4,5-dihydro-1H-pyrazol-3-yl)phenoxy)acetate]
- IC50 [1]: 15500 ± 610 nM
- IC50 [2]: 531 ± 50 nM
- % inhibition (edema) [3]: 80.29%
- Paw edema % inhibition ([3]; 1 h after carrageenan): 61.1%
- Paw edema thickness ± SEM ([3]; 1 h after carrageenan): 2.23 ± 0.0045 mm
- Paw edema % inhibition ([3]; 3 h after carrageenan): 41.9%
- Paw edema thickness ± SEM ([3]; 3 h after carrageenan): 2.79 ± 0.011 mm
- Paw edema % inhibition ([3]; 5 h after carrageenan): 40%
- Paw edema thickness ± SEM ([3]; 5 h after carrageenan): 2.90 ± 0.002 mm
- ED50 [3]: 31.2 mg/kg
- % incidence /10 [4]: 2
- Average no of ulcer [4]: 0.47 ± 0.006^b
- Average severity [4]: 0.51 ± 0.013^b
- IC50 [5]: 330 ± 21 nM
- IC50 [6]: 241 ± 9 nM
